Results as given in patent publication US20200000756A1, “NEOSTIGMINE COMBINATION AND COMPOSITIONS” (priority 2017, published 2020).
“Also recorded” adds a separate entry of the source.

Test: Phase I single-blind study: single oral doses of neostigmine bromide with or without a single oral dose of ondansetron hydrochloride dihydrate
Assay type: in vivo
Conditions: six human subjects
Protocol: The ability of the 5HT3-antagonists for preventing the gastro-intestinal adverse effects of orally administered neostigmine bromide in humans was tested.
A Phase I study was conducted in six human subjects receiving a single oral dose of neostigmine bromide with or without a single oral dose of ondansetron hydrochloride dihydrate, as a representative 5HT3-antagonist. The study was a single center, single-blind.
To be enrolled in the study, participants (aged 18 to 60 years of age) were required, to refrain from consuming xanthine, quinine and caffeine containing beverages, and to refrain from prolonged intensive physical exercise during the study conduct. […] The key criteria for exclusion of a subject from enrollment in the study were as follows:
any clinically relevant acute or chronic disease which could interfere with the subjects' safety during the trial, expose them to undue risk, or interfere with the study objectives; history or presence of gastrointestinal, hepatic, or renal disease or other condition known to interfere with the absorption, distribution, metabolism or excretion of drugs; history of substance abuse, known drug addiction, or positive test for drugs of abuse or alcohol; history of drug or other significant allergy; ECG changes including QT interval prolongation and congenital long QT syndrome. […]

With `Cc1nccn1CC1CCc2c(c3ccccc3n2C)C1=O` (racemic) [ondansetron, (±) 1,2,3,9-tetrahydro-9-methyl-3-[(2-methyl-1H-imidazol-1-yl)methyl]-4H-carbazol-4-one] as the compound, how does the “neostigmine dose reached before second intolerable dose (FID-2) on co-administration of ondansetron” value (neostigmine dose escalated together with oral ondansetron hydrochloride dihydrate 10 mg (8 mg base)) read?
The value was “enabled subjects to reach neostigmine doses as high as or higher than the recommended efficacious dose for the treatment of MG”.

What about the “gastro-intestinal AEs of neostigmine on co-administration of ondansetron” value (single oral ondansetron hydrochloride dihydrate 10 mg (equivalent to 8 mg ondansetron base) with oral neostigmine bromide at the first intolerable dose and above) of the same compound?
Its value is “attenuated gastro-intestinal AEs reported with neostigmine alone; also recorded: prevented the occurrence of gastro-intestinal AEs”.
